Literature values in paper PMC11477967, “Review of the Structural Characteristics and Biological Activities of Tricholoma Secondary Metabolites (2018–2023)” (Molecules, 2024).
≈ marks a conversion by molar mass, not a printed value. Read-outs that look alike come from different tables or passages of the source.

How the values were obtained:
[1] = test system: MCF-7; parameters: method as in PMID 33449279; details: MCF-7 cells
[2] = test system: HeLa; parameters: method as in PMID 33449279
[3] = test system: caspase-3; parameters: method as in PMID 33449279; details: compared to the control group
[4] = test system: caspase-9; parameters: method as in PMID 33449279; details: compared to the control group
[5] = test system: human cancer cell lines; details: Table 1 summary
[6] = test system: S. aureus; parameters: method as in PMID 26186257
[7] = test system: B. subtilis; parameters: method as in PMID 26186257
[8] = test system: Pseudomonas aeruginosa; parameters: method as in PMID 26186257
[9] = test system: S. epidermidis; parameters: method as in PMID 26186257
[10] = test system: E. coli; parameters: method as in PMID 26186257
[11] = test system: human tumor cell lines; parameters: method as in PMID 29758519, PMID 32534274, PMID 26186257; details: Table 1 summary
[12] = test system: bacteria; parameters: method as in PMID 32534274, PMID 26186257, PMID 34604687, PMID 28794307; details: Table 1 summary
[13] = test system: A-549
[14] = test system: MCF-7
[15] = test system: HeLa; parameters: method as in PMID 36480815; details: HeLa cell line
[16] = parameters: method as in PMID 36480815; details: among 50-54
[17] = parameters: method as in PMID 36480815; details: Table 1 summary
[18] = test system: MCF7
[19] = test system: HT29
[20] = test system: H1299
[21] = test system: L929
[22] = test system: PDF; parameters: method as in PMID 36480815; details: PDF cells

C=C1CCC(CCC2CC=C(C3(C)CCC(=O)C(C)(C)O3)OC2)C(C)(C)C1CC=C1C(=O)OCC1O (stereo not shown) [Compound 63, tricholopardin C]
IC50 [1]: 4.7 µM
cytotoxicity [2]: cytotoxicity
activation of caspase-3 [3]: activation
activation of caspase-9 [4]: activation
Bioactivities: Cytotoxic against human cancer cell lines [5]: Cytotoxic against human cancer cell lines

CC(C)C(C)C=CC(C)C1CCC2C(=CC(=O)OC3(C)CCC=CC3=O)C(=O)CCC21C (stereo not shown) [Compound 40, chaxine C]
antibacterial activity [6]: more significant inhibitory effect
antibacterial activity [7]: more significant inhibitory effect
antibacterial activity [8]: antibacterial activity
antibacterial activity [9]: antibacterial activity
antibacterial activity [10]: antibacterial activity
Bioactivities: Anti-cancer activity [11]: Anti-cancer activity
Bioactivities: Antibacterial activity [12]: Antibacterial activity
IC50 [13]: < 10 µM
selective cytotoxicity [13]: selective toxicity
selective cytotoxicity [14]: selective toxicity

CC(C)C(C)/C=C/[C@@H](C)C1CCC2C3=C[C@H](O)[C@@]45C[C@@H](O)CC[C@]4(C)[C@]3(CC[C@@]21C)O5 (stereo partly shown) [Compound 50, anatoluin A]
IC50 [15]: 14.3 ± 1.7 µg/mL (≈ 33.4 µM)
lipid peroxidation inhibitory activity (rank, words) [16]: most active
Bioactivities: Antioxidant activity [17]: Antioxidant activity
cytotoxic activity [18]: selectively inhibited
cytotoxic activity [19]: selectively inhibited
cytotoxic activity [20]: selectively inhibited
IC50 ([20]; H1299 cell line): 34.3 ± 1.1 µg/mL (≈ 80 µM)
toxicity to normal or healthy cell lines [21]: almost no toxicity

CC(C)C(C)C=CC(C)C1CCC2C1(C)CCC1C23C=CC2(CC(O)CCC12C)OO3 (stereo not shown) [Compound 53, ergosterol-endoperoxide]
IC50 [22]: 52.8 ± 0.5 µg/mL (≈ 123 µM)
Bioactivities: Antioxidant activity [17]: Antioxidant activity
cytotoxic activity ([19]; HT29): selectively inhibited
IC50 ([21]; L929 cells): 65.6 ± 2.2 µg/mL (≈ 153 µM)
Bioactivities: Cytotoxic against human cancer cell lines [5]: Cytotoxic against human cancer cell lines
